The results in this text go back to PubChem BioAssay (NCI).

What all share (experiment): inhibition of tumour cell growth, NCI panel, 48 h
Test [1] has as its system 786-0 renal.
Test [2] has as its system TK-10 renal.
The subject of test [3] is BT-549 breast.
Test [4] has as its system NCI/ADR-RES ovarian.
The subject of test [5] is RXF 393 renal.
Test [6] relates to T-47D breast.
The subject of test [7] is UACC-257 melanoma.
The test system of test [8] is HOP-92 NSCLC.
Test [9] relates to COLO 205 colon.
Test [10] relates to A498 renal.

Each structure is given as a SMILES string. Where “and” joins values, the source holds several entries; their conditions need not be identical. Equal values may be shown once.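 Five concentrations, 48 hours, 96-well plates. GI50 marks 50% less growth. TGI: concentration producing complete growth inhibition.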 Some results are limits rather than exact numbers.

In the case of `C=C(C)[C@@]1(O)O[C@H]2C[C@@]3(C)OC(=CC3=O)/C(C)=C\[C@@H]3OC(=O)[C@@]1(C)[C@H]32`, the TGI in test [1] is 26.7 µM; in test [2] it was 42.1 µM; in test [3] it was 23.9 µM; in [4], above 100 µM; in [5] it was 26.8 µM; in [6], 59.2 µM. The TGI was above 63.5 µM in [7], 41.3 µM in [8] and 35.3 µM in test [9].
Regarding `COc1c2cc([N+](=O)[O-])cc1CNC(=O)CN1CCOCCOCCN(CCOCCOCC1)CC(=O)NC2`, the TGI in test [1], in test [2], in [3], in test [4], in [5] and in test [10] was above 100 µM each time. The TGI in test [6], in [7], in test [8] and in [9] was above 100 µM each time.
In the case of `CCOc1cc2c(cc1O)/C(=N\N)C[C@@H]1[C@@H]2CC[C@]2(C)[C@@H](O)CC[C@@H]12`, the TGI in [1] is above 38.5 µM; in [2], above 68 µM; in [3], 29.8 µM; in [4] it was above 28.2 µM; in test [5], 36.2 µM; in test [10] it was above 100 µM. Also, the TGI was above 39.5 µM in test [6], above 50.9 µM in test [7], 49.9 µM in test [8] and above 56.5 µM in test [9].
Turning to `O=C1C(N2CCCC2)=CC(=O)c2c(O)c(N3CCCC3)c(Cl)c(O)c21`, the TGI in [1], in test [2], in test [3], in test [4], in test [5] and in test [10] was above 10 µM throughout. Also, the TGI in test [6], in [7], in test [8] and in test [9] was above 10 µM in each case.
`CNC(=O)c1ccccc1-[s+]1c2ccccc2c(=O)n1C` (stereo unspecified): the TGI in test [1], in [2], in [3], in [4], in [5] and in test [10] was above 100 µM throughout. The TGI in [6], in test [7], in test [8] and in test [9] was above 100 µM each time.
As to `O=C1c2ccccc2C(=O)N1n1c(Cc2ccccc2)n[nH]c1=O`, the TGI in test [1], in test [2], in test [3], in test [4], in test [10] and in [6] was above 100 µM throughout. Further, the TGI in test [7], in [8] and in [9] was above 100 µM in each case.
For `c1ccc(C2=NC3(CCCCC3)N(c3nc4ccccc4s3)N2)nc1`, the TGI in test [1] is 42.2 µM; in test [2], 52.8 µM; in [3] it was 58.2 µM; in [4], 65.3 µM; in test [5], 57.7 µM; in test [10] it was above 100 µM. The TGI in [6] was 49.6 µM; in test [7], 43.4 µM; in test [8] it was above 100 µM; in test [9], 41.4 µM.
In the case of `CCOC(=O)CCCn1nnc(C(=O)OCC)c1C(=O)OCC`, the TGI in test [1], in [2], in test [3], in [4], in [5] and in test [6] was above 100 µM in each case. In addition, the TGI in test [7], in test [8] and in test [9] was above 100 µM throughout.
For the compound `O=c1c2ccccc2oc2nc3n(c(=O)c12)CCCS3`, the TGI in test [1], in test [2], in test [3], in [4], in test [5] and in test [10] was above 100 µM each time. The TGI in test [6], in test [7], in test [8] and in test [9] was above 100 µM in each case.
On to `C=CCNC(=S)Nc1sc2c(c1C(=O)OCC)CC(C)CC2` (stereo unspecified), for which the TGI is above 100 µM in test [1]; 63.7 µM in [2]; above 100 µM in test [3]; above 100 µM in test [4]; 83.9 µM in test [5]; 66.7 µM in test [6]. Also, the results for the TGI in test [7], in test [8] and in test [9] were 43.5 µM, above 100 µM and 35.6 µM, respectively.
For `O=C(Cc1ccccc1)NCCc1ccc(O)c(O)c1`, the TGI in [1], in test [2], in test [3], in test [4], in test [5] and in test [10] was above 100 µM in each case. Besides, the TGI in test [6], in test [7], in [8] and in test [9] was above 100 µM each time.
Consider `OCC1OC(c2scc3c(=S)nc[nH]c23)C(O)C1O` (stereo unspecified), for which the TGI in test [1] is above 100 µM; in test [2], above 100 µM; in test [3], above 100 µM; in test [4] it was above 66.3 µM; in test [5] it was above 100 µM; in test [10] it was above 54.1 µM. The TGI in test [6] is 9.53 µM; in test [7], above 46.4 µM; in test [8], 6.92 µM; in test [9], 33.5 µM.
`Cc1[nH]c2ncn(/N=C/c3ccccc3O)c(=N)c2c1Cc1ccccc1`: the TGI in [1], in test [2], in [3], in test [4], in test [5] and in test [10] was above 100 µM in each case. In addition, the TGI in test [6], in [7], in test [8] and in [9] was above 100 µM each time.
For the compound `c1ccc(CNC2CC(NCc3ccccn3)CC(NCc3ccccn3)C2)nc1` (stereo unspecified), the TGI in test [1] is 9.95 µM and 5.87 µM and 6.09 µM; in [2], 17.8 µM and 10.8 µM; in test [3], 17.1 µM and 10.5 µM and 38 µM; in test [4], above 100 µM; in [5] it was 4.11 µM and 9.03 µM and 3.83 µM; in test [10] it was 3.31 µM and 6.25 µM and 3.51 µM. The TGI in [6] was 21.5 µM and 25 µM and 25.6 µM; in test [7] it was 21.4 µM and 9.81 µM; in [8], 9.06 µM and 8.87 µM and 15.2 µM; in test [9], 4.02 µM and 4.61 µM and 3.21 µM. Also, the GI50 was 18.2 µM in test [3]; above 100 µM in test [4]; 1.98 µM and 4.41 µM in [5]; 2.06 µM in test [10]; 6.64 µM in [6].
